These results are taken from paper PMC12914960, “Repurposing a detrimental antibody epitope as targeted therapeutics for sepsis and rheumatoid arthritis” (Military Medical Research, 2026).

Assay [1] deals with Differentiated human macrophages. Description: Cellular uptake of Alexa Fluor 555-labeled HMGB1 by differentiated macrophages. It counts as cell-based. As to conditions: P2-1 10 µg/ml, HMGB1 0.5 µg/ml, 2 h, 37 °C. How it is done:
plots and heatmaps were generat ed via ggplot2 and pheatmap packages in R, respectively. Genes with an adjusted P -value < 0.05 and a |log2 fold change| > 1 were considered differentially expressed.
(§1) Human macrophage differentiation and treatment
Human PBMCs were differentiated into macrophages by culturing in human macrophage colony-stimulating factor (M-CSF, 20 ng/ml) for 5 – 6 d. Differentiated macrophages were maintained in Dulbecco’s modified Eagle’s medium supplemented with 1% penicillin/streptomycin and 10% human serum. […]
(§2) Cell viability was assessed via the tryp an blue excl usion and lactat e dehyd ro genase (LDH) release method as previously described . For trypan blue exclusion, random phase-contr ast images were captur ed , and the percentage of nonviable, trypan blue-stained cells was calculated. LDH release in the culture medium was quantified with an LDH Ass ay Kit (Cat. #L7572, Pointe Scientific Inc., Canton, MI, USA) according to the manufacturer ’s instructions. Optical density was measured at 340 nm, and LDH content was expressed as a per centag e of maximal release in the presence of 2% Triton X-100. […]
#H-1200, Vector Laborat ories, Inc., Newark, CA, USA) for nuclear counterstaining. Endocytic uptake of Alexa Fluor 555- labeled HMGB1 (red) was visualized via the Olympus IX51 inverted fluorescence & phase contrast tissue culture microscope. […]

The test system is the same in assay [2]. Description: HMGB1-induced macrophage death, trypan blue uptake. The assay is classed as cell-based. As to conditions: 16 h; for Trypan blue uptake: individual replicates. How it is done:
as §1
Human PBMCs were differentiated into macrophages by culturing in human macrophage colony-stimulating factor (M-CSF, 20 ng/ml) for 5 – 6 d. Differentiated macrophages were maintained in Dulbecco’s modified Eagle’s medium supplemented with 1% penicillin/streptomycin and 10% human serum. Upon reaching 70 – 80% conflu ence, adh erent cells were wash ed and switched to Opti-MEM I before stimulation with recombinant HMGB1 (0.5 µg/ml) with or without P2- 1 (5.0 or 10 µg/ml) for 16 […]
as §2, with “X-100. The experiments were performed 5 – 7 times ( n= 5 –7 biological replicates).” for “X-100.”

Where “and” joins values, the source holds several entries; their conditions need not be identical. Equal entries are not always repeated. Where a SMILES comes first, the peptide text is derived from it.

For the molecule `CCCC[C@H](NC(=O)[C@H](Cc1c[nH]cn1)NC(=O)[C@@H](NC(=O)[C@H](CCCCN)NC(=O)[C@@H](N)[C@@H](C)O)C(C)C)C(=O)N[C@@H](CCCCN)C(=O)N[C@@H](CO)C(=O)N[C@@H](Cc1ccccc1)C(=O)N[C@@H](CC(C)C)C(=O)N[C@@H](C)C(=O)N[C@@H](Cc1ccccc1)C(=O)N[C@@H](CCC(N)=O)C(=O)N[C@H](C(=O)N[C@@H](CCCCN)C(=O)N[C@H](C(=O)O)[C@@H](C)O)[C@@H](C)O` [P2-1] (HELM PEPTIDE1{T.K.V.H.[Nle].K.S.F.L.A.F.Q.T.K.T}$$$$V2.0; N-terminus and C-terminus assumed), the “HMGB1 cellular uptake, in words” value in assay [1] was “markedly reduced Alexa Fluor 555-HMGB1 uptake”. Moreover, the Trypan blue uptake was 4.1% and 2.7% and 4.8% and 2.3% and 0.9% and 2.4% in assay [2] (HMGB1 0.5 µg/ml + P2-1 5.0 μg/ml); 2.9% and 0.8% and 3.8% and 1.1% and 4.2% and 3.6% and 2.4% in assay [2] (HMGB1 0.5 µg/ml + P2-1 10.0 μg/ml). Moreover, the “HMGB1-induced macrophage death, in words” value in assay [2] (trypan blue uptake and LDH release, HMGB1 0.5 µg/ml, P2-1 5.0 or 10 µg/ml) is “significantly inhibited HMGB1-induced macrophage death”.
